According to US10722484B2, “Methods of cancer treatment” (K-Gen, Inc., priority 2016, dated 2020):
Read-outs that look alike come from different tables or passages of the source.

Experiments:
[1] = test system: HL60; test: Proliferation assay (CellTiter Glo); format: cell-based, human; settings: 96 hours; for Top Inhibition %: % of top inhibition; for EC50: Homo sapiens, HL-60
Method: (§1) The dose range for most compounds was 4.6 nM-30 μM. The dose ranges for some compounds were adjusted downward to 0.46 nM-3 μM or 0.08 nM-0.5 μM or 0.03 nM-0.2 μM. […] The results are shown in Tables 3-6 for pancreatic cancer, lung cancer, colon/gastric cancer, and leukemia.

[2] = test system: THP1; test: Proliferation assay (CellTiter Glo); format: cell-based, human; settings: 96 hours; for EC50: Homo sapiens, THP-1; for Top Inhibition %: % of top inhibition
Method: as §1

[3] = test system: phospho-PKC (pan); test: Western blot analysis of PKC signaling pathway elements in A549 cells; format: cell-based; settings: 48 hours, K103, K102 at 0.5 μM, K101A at […]
Method: (§2) Cancer cells (2-8 million cells) were seeded in 10 cm dishes and grown overnight. For A549 lung cancer cell line, about 3 million cells were seeded. Cells were then treated with different drugs at concentrations described in Table 8 for a period of time up to 48 hours. Cells were lysed in 0.3-0.5 mL of RIPA buffer (Sigma) supplemented with protease inhibitors (Roche) and phosphatase inhibitors (Sigma). Lysates were assayed for protein concentration using BCA kit (Pierce). Normalized amount of lysates (20-30 μg protein/lane) were run on 4-12% NuPage gel (Life Technologies) and the proteins were transferred to the PVDF or nitrocellulose membrane using iBlot® Transfer Stack (Life Technologies). The membranes were probed with primary antibodies shown in Table 9 at 4° C. overnight after blocking with 1×TBST containing 5% non-fat milk. Antibodies from other vendors could also be used in Western blot analysis. After washing 5 times with 1×TBS containing 0.1% Tween20, the membranes were probed with 2nd antibodies Anti-mouse IgG Dylight 800 conjugate or Anti-rabbit IgG DyLight 680 conjugate (1:10000; Cell signaling or similar IR 2nd antibodies from different vendors) at room temperature for one hour. After washing 5 times, the membranes were scanned using Odyssey® Imaging System (Licor Biosciences).

[4] = test system: leukemia inhibitory factor (LIF); test: as above; format: cell-based; settings: Western blot, concentrations of Table 8 (K101A 0.1, 0.5, […]; K101E […]; K102 0.1, 0.5 μM; K103 0.01 μM; Ref1 1 μM; Ref2 0.01 μM)
Method: as §2

[5] = test system: A549 cells; test: Soft agar colony formation assay; format: cell-based; settings: for number of colonies formed in soft agar: 7-10 days, 9-point 3-fold dilution series
Method: To prepare a base agar layer (0.6%), melted 1.2% agar solution was mixed 1:1 (v/v) with 2×DMEM/20% FBS medium in a tube by inverting several times, and 50 μL of the mixture was immediately transferred to a well in a 96-well flat-bottom microplate. The plate was placed at 4° C. for 30 minutes to allow the base agar layer to solidify. Then, the cell agar layer (agar 0.4%) was prepared by transferring 75 μL of the cell and agar mixture containing 1:1:1 (v/v/v) of 1.2% agar solution, 2×DMEM/20% FBS and cell suspension (0.4-4×10E5/mL) to each well of the plates so that each well contained 1000-10000 cells per well. The plates were placed at 4° C. for 15 minutes and then 75 μL of media was added to each well. After incubating the plates overnight in a CO2 incubator, 50 μL of media with or without 5× final concentrations of compounds were added to each well. Each compound was tested in 9-point 3-fold dilution series. The plates were incubated for 7-10 days at 37° C. At the end of incubation period, 28 μL of Calcein AM solution (5 μM) was added to the center of each well. The plates were incubated at 37° C. for 45 minutes before scanning on Acumen (TTP Labtech). Each compound was tested in triplicates. Data was analyzed and compound EC50s were calculated using GraphPad Prism 5.

[6] = test system: CCRF-CEM; test: Proliferation assay (CellTiter Glo); format: cell-based; settings: 96 hours; for Top Inhibition %: % of top inhibition; for EC50: Homo sapiens
Method: as §1

[7] = test system: LS180; test: Proliferation assay (CellTiter Glo); format: cell-based; settings: 96 hours; for EC50: Homo sapiens, LS180 (K-RAS: G12D), absolute EC50, read-out: Ab EC50; for Top Inhibition %: LS180, % of top inhibition
Method: as §1

[8] = test system: AsPC-1; test: Proliferation assay (CellTiter Glo); format: cell-based; settings: 96 hours; for Top Inhibition %: % of top inhibition; for EC50: Homo sapiens, ASPC1
Method: as §1

[9] = test system: HCT116; test: Proliferation assay (CellTiter Glo); format: cell-based; settings: 96 hours; for Top Inhibition %: % of top inhibition; for EC50: Homo sapiens, HCT-116
Method: as §1

[10] = test system: A549; test: Proliferation assay (CellTiter Glo); format: cell-based; settings: 96 hours; for Top Inhibition %: % of top inhibition; for EC50: Homo sapiens
Method: as §1

[11] = test system: SW620; test: Proliferation assay (CellTiter Glo); format: cell-based; settings: 96 hours; for EC50: Homo sapiens, SW-620, SW620 (K-RAS: G12V), absolute EC50, read-out: Ab EC50; for Top Inhibition %: SW620, % of top inhibition
Method: as §1

[12] = test system: H441; test: Proliferation assay (CellTiter Glo); format: cell-based; settings: 96 hours; for Top Inhibition %: % of top inhibition; for EC50: Homo sapiens, NCI-H441
Method: as §1

[13] = test system: H727; test: Proliferation assay (CellTiter Glo); format: cell-based; settings: 96 hours; for Top Inhibition %: % of top inhibition; for EC50: Homo sapiens, NCI-H727
Method: as §1

[14] = test system: KP-4; test: Proliferation assay (CellTiter Glo); format: cell-based; settings: 96 hours; for EC50: Homo sapiens; for Top Inhibition %: % of top inhibition
Method: as §1

[15] = test system: Pan2.13; test: Proliferation assay (CellTiter Glo); format: cell-based; settings: 96 hours; for Top Inhibition %: % of top inhibition
Method: as §1

[16] = test system: H358; test: Proliferation assay (CellTiter Glo); format: cell-based; settings: HE58, 96 hours; for Top Inhibition %: % of top inhibition; for EC50: Homo sapiens, NCI-H358
Method: as §1

[17] = HL60 (N-RAS: Q61L), absolute EC50, read-out: Ab EC50
[18] = THP1 (N-RAS: G12D), absolute EC50, read-out: Ab EC50
[19] = CCRF-CEM (K-RAS: G12D), absolute EC50, read-out: Ab EC50
[20] = CCRF-CEM, relative EC50, read-out: Re EC50
[21] = AsPC-1 (K-RAS: G12D), absolute EC50, read-out: Ab EC50
[22] = AsPC-1, relative EC50, read-out: Re EC50
[23] = HCT116 (K-RAS: G13D), absolute EC50, read-out: Ab EC50
[24] = HCT116, relative EC50, read-out: Re EC50
[25] = A549 (K-RAS: G12S), absolute EC50, read-out: Ab EC50
[26] = H441 (K-RAS: G12V), absolute EC50, read-out: Ab EC50
[27] = H441, relative EC50, read-out: Re EC50
[28] = H727 (K-RAS: G12V), absolute EC50, read-out: Ab EC50
[29] = H727, relative EC50, read-out: Re EC50
[30] = KP-4 (K-RAS: G12C), absolute EC50, read-out: Ab EC50
[31] = Pan2.13 (K-RAS: Q61H), absolute EC50, read-out: Ab EC50
[32] = Pan2.13, relative EC50, read-out: Re EC50
[33] = absolute EC50, read-out: Ab EC50
[34] = relative EC50, read-out: Re EC50

Structure (SMILES) | Top Inhibition % ([1]; HL60) | EC50 [1, 17] | EC50 [2, 18] | Top Inhibition % ([2]; THP1) | phospho-PKC (pan) levels [3] | protein levels of the leukemia inhibitory factor (LIF) [4] | number of colonies formed in soft agar [5] | Top Inhibition % ([6]; CCRF-CEM) | EC50 [6, 19] | EC50 [6, 20] | EC50 [7] | Top Inhibition % [7] | Top Inhibition % ([8]; AsPC-1) | EC50 [8, 21] | EC50 [8, 22] | Top Inhibition % ([9]; HCT116) | EC50 [9, 23] | EC50 [9, 24] | Top Inhibition % ([10]; A549) | EC50 [10, 25] | further results
C/C=C(/C)C(=O)O[C@H]1C(C)=C[C@]23C(=O)[C@@H](C=C(CO)[C@@H](O)[C@]12O)[C@H]1[C@@H](C[C@H]3C)C1(C)C [Compound K102, ingenol-3-angelate] | 60.1% | 15 nM | 15 nM | 52.4% | reduction | did not affect | reduced the number of colonies formed by A549 cells in a dose-dependent manner | 30.3% | > 3000 nM | 0.9 nM | > 30000 nM | 9.3% | 37.8% | > 3000 nM | 14 nM | 23.2% | > 3000 nM | 21 nM | 80.8% | 17 nM | EC50 ([1]; HL60, relative EC50, read-out: Re EC50): 14 nM; EC50 ([2]; THP1, relative EC50, read-out: Re EC50): 12 nM; EC50 ([10]; A549, relative EC50, read-out: Re EC50): 17 nM; EC50 [11]: > 30000 nM; Top Inhibition % [11]: 0.0%; Top Inhibition % ([12]; H441): 50.6%; EC50 [12, 26]: 1010 nM; EC50 [12, 27]: 2.4 nM; Top Inhibition % ([13]; H727): 61.0%; EC50 [13, 28]: 22 nM; EC50 [13, 29]: 4.3 nM; EC50 [14, 30]: 15 nM; EC50 ([14]; KP-4, relative EC50, read-out: Re EC50): 15 nM; Top Inhibition % ([14]; KP-4): 62.2%; EC50 [15, 31]: 3.9 nM; Top Inhibition % ([15]; Pan2.13): 51.7%; EC50 [15, 32]: 1.2 nM; Top Inhibition % [16]: 57.5%; EC50 [16, 33]: 97 nM; EC50 [16, 34]: 4.5 nM
CCCCCCCCCCCCCC(=O)O[C@@H]1[C@@H](C)[C@@]2(O)[C@@H](C=C(CO)C[C@]3(O)C(=O)C(C)=C[C@@H]23)[C@@H]2C(C)(C)[C@]12OC(C)=O [Compound K103, 12-O-Tetradecanoylphorbol-13-acetate] | 60.0% | < 4.6 nM | < 4.6 nM | 52.9% | reduction | did not affect | reduced the number of colonies formed by A549 cells in a dose-dependent manner | 37.7% | > 500 nM | 0.24 nM | > 10000 nM | 14.7% | 32.7% | > 500 nM | 1.3 nM | 21.4% | > 500 nM | 1.2 nM | 80.6% | < 4.6 nM | rank of potency in soft agar assay ([5]; order K103, K102, K101A, K101E): Most potent; EC50 [11]: > 10000 nM; Top Inhibition % [11]: 1.2%; Top Inhibition % ([12]; H441): 46.7%; EC50 [12, 26]: > 500 nM; EC50 [12, 27]: 0.75 nM; Top Inhibition % ([13]; H727): 57.4%; EC50 [13, 28]: 2.2 nM; EC50 [13, 29]: 0.37 nM; EC50 [14, 30]: < 4.6 nM; Top Inhibition % ([14]; KP-4): 70.3%; EC50 [15, 31]: > 500 nM; Top Inhibition % ([15]; Pan2.13): 41.9%; EC50 [15, 32]: 0.66 nM; Top Inhibition % [16]: 59.6%; EC50 [16, 33]: 2.2 nM; EC50 [16, 34]: 0.4 nM
